From ChEMBL document CHEMBL3832060, “DailyMed|setid=39945812-f776-4b13-8199-e846e37aa101 | TRAMADOL HYDROCHLORIDE AND ACETAMINOPHEN - tramadol hydrochloride and acetaminophen tablet, film coated|Cadila Healthcare Limited”

Experiment: clinical
Settings: human, in vivo, po
Description: Evalaution of pharmacokinetic parameters of Acetaminophen following single oral co-administration of 325 mg Acetaminophen tablets with 37.5 mg Tramadol.

Question: For CC(=O)Nc1ccc(O)cc1 [ACETAMINOPHEN], which Cmax is on record?
Answer: Its Cmax is 4200 ng/mL.

Question: And the Tmax?
Answer: Its Tmax is 0.9 h.

Question: What about the half-life of the same molecule?
Answer: Its half-life is 2.5 h.
